Assay results published in the supplement of paper PMC4862054.

Tests used:
Details in all cases: 72 h
MDA-MB-453 [1] = tested on: MDA-MB-453
In short: (§1)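 Breast cancer cell lines in 20 µl suspension were seeded onto 384-well plates pre-loaded with compound dissolved in 5 µl medium, then incubated 72 h. For viability, 2.5 µl CellTiter-Blue was added for 2 h at 37 °C and fluorescence read at 560/590 nm. Each plate was normalised to vehicle and a positive kill control and checked by Z'-factor. EC50 comes from the fitted percent-inhibition dose-response curve, censored at the highest concentration; rows with zero drug sensitivity score were dropped.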

CAL-51 [2] = tested on: CAL-51
In short: as §1

HCC1143 [3] = tested on: HCC1143
In short: as §1

Hs578T [4] = tested on: Hs578T
In short: as §1

CAL-120 [5] = tested on: CAL-120
In short: as §1

MDA-MB-231 [6] = tested on: MDA-MB-231
In short: as §1

MDA-MB-453 [7] = tested on: MDA-MB-453; remark: listed apart in the source
In short: (§2)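 Seeding of breast cancer cell lines (20 µl suspension) was done into 384-well plates pre-loaded with compound at 5 concentrations, 10-fold apart, covering a compound-specific 10,000-fold range. The plates were incubated for 72 h, read for CellTox Green fluorescence (485/520 nm), and then read for CellTiter-Glo luminescence after 10 min at room temperature. Every plate was normalised to 0.1 % DMSO and a positive kill control. Curve fitting gave the EC50, censored at the top concentration.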

MDA-MB-436 [8] = tested on: MDA-MB-436
In short: as §2

HCC1143 [9] = tested on: HCC1143; remark: listed apart in the source
In short: as §2

BT-549 [10] = tested on: BT-549
In short: as §2

Hs578T [11] = tested on: Hs578T; remark: listed apart in the source
In short: as §2

CAL-51 [12] = tested on: CAL-51; remark: listed apart in the source
In short: as §2

CAL-120 [13] = tested on: CAL-120; remark: listed apart in the source
In short: as §2

HCC1937 [14] = tested on: HCC1937
In short: as §2

MFM-223 [15] = tested on: MFM-223
In short: as §2

CAL-85-1 [16] = tested on: CAL-85-1
In short: as §2

HCC1599 [17] = tested on: HCC1599
In short: as §2

SK-BR-3 [18] = tested on: SK-BR-3
In short: as §2

MDA-MB-231 [19] = tested on: MDA-MB-231; remark: listed apart in the source
In short: as §2

DU-4475 [20] = tested on: DU-4475
In short: as §2

MCF-10A [21] = tested on: MCF-10A
In short: as §2

MDA-MB-453 [22] = tested on: MDA-MB-453; remark: listed apart in the source
Experimental: (§3)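 Drug sensitivity and resistance testing (DSRT) of breast cancer cell lines in 384-well plates, 5 concentrations in 10-fold dilutions over a compound-specific 10,000-fold range. After 72 h, cytotoxicity was read by CellTox Green fluorescence and viability by CellTiter-Glo luminescence (multiplexed), normalised to DMSO and benzethonium chloride controls. EC50 is the inflection point of the fitted dose-response curve (bottom asymptote free, so it can be relative for partial curves) and is censored at the highest tested concentration. Rows with DSS 0 (no meaningful response) were excluded.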

BT-549 [23] = tested on: BT-549; remark: listed apart in the source
Experimental: as §3

Hs578T [24] = tested on: Hs578T; remark: listed apart in the source
Experimental: as §3

CAL-51 [25] = tested on: CAL-51; remark: listed apart in the source
Experimental: as §3

MFM-223 [26] = tested on: MFM-223; remark: listed apart in the source
Experimental: as §3

CAL-85-1 [27] = tested on: CAL-85-1; remark: listed apart in the source
Experimental: as §3

MDA-MB-231 [28] = tested on: MDA-MB-231; remark: listed apart in the source
Experimental: as §3

HDQ-P1 [29] = tested on: HDQ-P1
Experimental: as §3

MCF-10A [30] = tested on: MCF-10A; remark: listed apart in the source
Experimental: as §3

MDA-MB-468 [31] = tested on: MDA-MB-468
Experimental: as §3

CAL-85-1 [32] = tested on: CAL-85-1; remark: listed apart in the source
In short: as §1

DU-4475 [33] = tested on: DU-4475; remark: listed apart in the source
In short: as §1

HDQ-P1 [34] = tested on: HDQ-P1; remark: listed apart in the source
In short: as §1

MDA-MB-436 [35] = tested on: MDA-MB-436; remark: listed apart in the source
In short: as §1

BT-549 [36] = tested on: BT-549; remark: listed apart in the source
In short: as §1

HCC1937 [37] = tested on: HCC1937; remark: listed apart in the source
In short: as §1

SK-BR-3 [38] = tested on: SK-BR-3; remark: listed apart in the source
In short: as §1

BT-474 [39] = tested on: BT-474
In short: as §1

MDA-MB-468 [40] = tested on: MDA-MB-468; remark: listed apart in the source
In short: as §1

CAL-148 [41] = tested on: CAL-148
In short: as §2

CAL-120 [42] = tested on: CAL-120; remark: listed apart in the source
Experimental: as §3

BT-474 [43] = tested on: BT-474; remark: listed apart in the source
Experimental: as §3

CAL-148 [44] = tested on: CAL-148; remark: listed apart in the source
In short: as §1

MFM-223 [45] = tested on: MFM-223; remark: listed apart in the source
In short: as §1

HCC1599 [46] = tested on: HCC1599; remark: listed apart in the source
In short: as §1

CAL-148 [47] = tested on: CAL-148; remark: listed apart in the source
Experimental: as §3

HCC1937 [48] = tested on: HCC1937; remark: listed apart in the source
Experimental: as §3

| EC50, CellTiter-Blue viability (MDA-MB-453 [1]) | EC50, CellTiter-Blue viability (HCC1143 [3]) | EC50, CellTiter-Blue viability (MDA-MB-231 [6]) | EC50, CellTiter-Glo (MDA-MB-453 [7]) | EC50, CellTiter-Glo (MDA-MB-436 [8]) | EC50, CellTiter-Glo (HCC1143 [9]) | EC50, CellTiter-Glo (BT-549 [10]) | EC50, CellTiter-Glo (SK-BR-3 [18]) | EC50, CellTiter-Glo (MDA-MB-231 [19]) | Structure (SMILES) | EC50, CellTiter-Blue viability (CAL-51 [2]) | EC50, CellTiter-Blue viability (Hs578T [4]) | EC50, CellTiter-Blue viability (CAL-120 [5]) | EC50, CellTiter-Glo (Hs578T [11]) | EC50, CellTiter-Glo (CAL-51 [12]) | EC50, CellTiter-Glo (CAL-120 [13]) | EC50, CellTiter-Glo (HCC1937 [14]) | EC50, CellTiter-Glo (MFM-223 [15]) | EC50, CellTiter-Glo (CAL-85-1 [16]) | EC50, CellTiter-Glo (DU-4475 [20]) | EC50, CellTox Green (CAL-51 [25]) | also measured |
| --- | --- | --- | --- | --- | --- | --- | --- | --- | --- | --- | --- | --- | --- | --- | --- | --- | --- | --- | --- | --- | --- |
| 102 nM | 9920 nM | 460 nM | – | – | – | – | – | – | CC(=O)c1c(C)c2cnc(Nc3ccc(N4CCNCC4)cn3)nc2n(C2CCCC2)c1=O | 1170 nM | 7700 nM | 12.8 nM | – | – | – | – | – | – | – | – | – |
| – | – | – | 109 nM | 1430 nM | 1730 nM | 397 nM | 193 nM | 1410 nM | Cn1cc(C2=Nc3cc(NC(=O)C(N)C4CCCCC4)cc4c3C2=CNNC4=O)cn1 (configuration not stated) | – | – | – | 387 nM | 2380 nM | 5050 nM | 3870 nM | 109 nM | 293 nM | 9440 nM | 1130 nM | EC50, CellTiter-Glo (HCC1599 [17]): 130 nM; EC50, CellTiter-Glo (MCF-10A [21]): 2700 nM; EC50, CellTox Green (MDA-MB-453 [22]): 7250 nM; EC50, CellTox Green (BT-549 [23]): 7370 nM; EC50, CellTox Green (Hs578T [24]): 9610 nM; EC50, CellTox Green (MFM-223 [26]): 3030 nM; EC50, CellTox Green (CAL-85-1 [27]): 88.9 nM; EC50, CellTox Green (MDA-MB-231 [28]): 255 nM; EC50, CellTox Green (HDQ-P1 [29]): 1000 nM; EC50, CellTox Green (MCF-10A [30]): 89.5 nM; EC50, CellTox Green (MDA-MB-468 [31]): 5280 nM |
| 552 nM | 5620 nM | 432 nM | 543 nM | 1060 nM | 1300 nM | 251 nM | 3130 nM | 938 nM | COc1cc2c(cc1O)CC[C@@H]1[C@@H]2CC[C@]2(C)[C@@H](O)CC[C@@H]12 [2-methoxyestradiol] | 2450 nM | 1210 nM | 1510 nM | 1400 nM | 4930 nM | 1020 nM | – | 1830 nM | 2220 nM | 4530 nM | 4060 nM | EC50, CellTiter-Blue viability (CAL-85-1 [32]): 1280 nM; EC50, CellTiter-Blue viability (DU-4475 [33]): 1730 nM; EC50, CellTiter-Blue viability (HDQ-P1 [34]): 4220 nM; EC50, CellTiter-Blue viability (MDA-MB-436 [35]): 697 nM; EC50, CellTiter-Blue viability (BT-549 [36]): 1020 nM; EC50, CellTiter-Blue viability (HCC1937 [37]): 820 nM; EC50, CellTiter-Blue viability (SK-BR-3 [38]): 5800 nM; EC50, CellTiter-Blue viability (BT-474 [39]): 747 nM; EC50, CellTiter-Blue viability (MDA-MB-468 [40]): 3190 nM; EC50, CellTiter-Glo (CAL-148 [41]): 7660 nM; EC50, CellTiter-Glo (HCC1599 [17]): 6410 nM; EC50, CellTox Green (BT-549 [23]): > 10000 nM; EC50, CellTox Green (Hs578T [24]): 1820 nM; EC50, CellTox Green (CAL-120 [42]): 6410 nM; EC50, CellTox Green (MFM-223 [26]): 660 nM; EC50, CellTox Green (BT-474 [43]): 370 nM; EC50, CellTox Green (MDA-MB-231 [28]): 756 nM |

| Structure (SMILES) | EC50, CellTiter-Blue viability (MDA-MB-453 [1]) | EC50, CellTiter-Blue viability (HCC1143 [3]) | EC50, CellTiter-Blue viability (MDA-MB-231 [6]) | EC50, CellTiter-Glo (MDA-MB-453 [7]) | EC50, CellTiter-Glo (MDA-MB-436 [8]) | EC50, CellTiter-Glo (HCC1143 [9]) | EC50, CellTiter-Glo (BT-549 [10]) | EC50, CellTiter-Glo (SK-BR-3 [18]) | EC50, CellTiter-Glo (MDA-MB-231 [19]) | EC50, CellTiter-Blue viability (CAL-51 [2]) | EC50, CellTiter-Blue viability (Hs578T [4]) | EC50, CellTiter-Blue viability (CAL-120 [5]) | EC50, CellTiter-Glo (Hs578T [11]) | EC50, CellTiter-Glo (CAL-51 [12]) | EC50, CellTiter-Glo (CAL-120 [13]) | EC50, CellTiter-Glo (HCC1937 [14]) | EC50, CellTiter-Glo (MFM-223 [15]) | EC50, CellTiter-Glo (CAL-85-1 [16]) | EC50, CellTiter-Glo (DU-4475 [20]) | EC50, CellTox Green (CAL-51 [25]) | also measured |
| --- | --- | --- | --- | --- | --- | --- | --- | --- | --- | --- | --- | --- | --- | --- | --- | --- | --- | --- | --- | --- | --- |
| Cc1sc2c(c1C)C(c1ccc(Cl)cc1)=N[C@@H](CC(=O)OC(C)(C)C)c1nnc(C)n1-2 [(+)JQ1] | 172 nM | 354 nM | 265 nM | 447 nM | 749 nM | 753 nM | 167 nM | 494 nM | 653 nM | 1040 nM | 122 nM | 114 nM | 126 nM | 7440 nM | 231 nM | 720 nM | 481 nM | 316 nM | 956 nM | 2330 nM | EC50, CellTiter-Blue viability (CAL-148 [44]): 676 nM; EC50, CellTiter-Blue viability (CAL-85-1 [32]): 254 nM; EC50, CellTiter-Blue viability (DU-4475 [33]): 339 nM; EC50, CellTiter-Blue viability (BT-549 [36]): 320 nM; EC50, CellTiter-Blue viability (HCC1937 [37]): 468 nM; EC50, CellTiter-Blue viability (MFM-223 [45]): 243 nM; EC50, CellTiter-Blue viability (HCC1599 [46]): 406 nM; EC50, CellTiter-Blue viability (SK-BR-3 [38]): 337 nM; EC50, CellTiter-Blue viability (MDA-MB-468 [40]): 871 nM; EC50, CellTiter-Glo (CAL-148 [41]): 920 nM; EC50, CellTiter-Glo (MCF-10A [21]): 254 nM; EC50, CellTox Green (CAL-148 [47]): 687 nM; EC50, CellTox Green (HCC1937 [48]): 10 nM; EC50, CellTox Green (CAL-85-1 [27]): 2020 nM; EC50, CellTox Green (MDA-MB-468 [31]): 1830 nM |
